Measured values reported in patent US11150251B2, “Bi-functional arginine-glycine-aspartic acid (RGD) peptides and methods to promote angiogenesis” (Clemson University Research Foundation, priority 2016, dated 2021).
Entries after “also recorded” stand apart in the source; their conditions may differ. Ends that are not written are not given here. * marks the point of attachment. Meth = methacrylated, methacrylate group attached (2-isocyanatoethyl methacrylate used), C=C(C)C(=O)OCCNC(=O)*

How the values were obtained:
hiPSC-CMs [1] = assay: hiPSC-CM adhesion on RGD peptide-functionalized PEG hydrogel microarray; type: cell-based, human; conditions: 15 mM peptide, 3 days culture, 18 replicates
Procedure: (§1) PEGDA and methacrylated peptides were mixed at one fixed peptide concentration (15 mM) to prepare microarrayed hydrogels with a constant peptide concentration. hiPSC-CMs (human induced pluripotent stem cell-derived cardiomyocytes from Cellular Dynamics International, Madison, Wis., USA) were seeded onto the microarray and cultured for 3 days to facilitate the formation of sarcomere structures. hiPSC-CMs were stained with DAPI to approximate cell number and phalloidin for F-actin to estimate cell spreading. Sarcomere structure was examined by using immunofluorescence microscopy.
hiPSC-derived cardiomyocytes (iCell Cardiomyocytes, Cellular Dynamics International, Madison, Wis., USA) were cultured according to the manufacturer's protocol. Briefly, hiPSC-derived cardiomyocytes were plated on 0.1% gelatin coated 6-well plates in iCell Cardiomyocytes Plating Medium (Cellular Dynamics International) at a density of about 3×10^5 to 4.0×10^5 cells/well and incubated at 37° C. in 5% CO2 for 4 days. Two days after plating, the plating medium was removed and replaced with 4 mL of iCell Cardiomyocytes Maintenance Medium (Cellular Dynamics International). After 4 days of monolayer pre-culture, cells were detached using trypLE Express (Gibco Life Technologies, Grand Island, N.Y.) and seeded along with culture media on the hydrogel microarrays. […] Sarcomere structures were visualized using sarcomere actinin and troponin-I staining as described above.

[2] = system: VLA-6 (α6) and αvβ3 integrin subunits; conditions: cited from earlier work
αvβ3 integrin = molecular target: T1, αvβ3 integrin (Homo sapiens, UniProt P05106+P06756); assay: Integrin antibody blocking of HUVEC adhesion on alginate surface, anti-integrin αvβ3; type: cell-based; conditions: 2D peptide-functionalized alginate, anti-integrin αvβ3 1:100, 6 hours
T1 construct: endogenous in cells; host or cells: HUVEC
T1 sequence (P06756 31-889 limits assumed): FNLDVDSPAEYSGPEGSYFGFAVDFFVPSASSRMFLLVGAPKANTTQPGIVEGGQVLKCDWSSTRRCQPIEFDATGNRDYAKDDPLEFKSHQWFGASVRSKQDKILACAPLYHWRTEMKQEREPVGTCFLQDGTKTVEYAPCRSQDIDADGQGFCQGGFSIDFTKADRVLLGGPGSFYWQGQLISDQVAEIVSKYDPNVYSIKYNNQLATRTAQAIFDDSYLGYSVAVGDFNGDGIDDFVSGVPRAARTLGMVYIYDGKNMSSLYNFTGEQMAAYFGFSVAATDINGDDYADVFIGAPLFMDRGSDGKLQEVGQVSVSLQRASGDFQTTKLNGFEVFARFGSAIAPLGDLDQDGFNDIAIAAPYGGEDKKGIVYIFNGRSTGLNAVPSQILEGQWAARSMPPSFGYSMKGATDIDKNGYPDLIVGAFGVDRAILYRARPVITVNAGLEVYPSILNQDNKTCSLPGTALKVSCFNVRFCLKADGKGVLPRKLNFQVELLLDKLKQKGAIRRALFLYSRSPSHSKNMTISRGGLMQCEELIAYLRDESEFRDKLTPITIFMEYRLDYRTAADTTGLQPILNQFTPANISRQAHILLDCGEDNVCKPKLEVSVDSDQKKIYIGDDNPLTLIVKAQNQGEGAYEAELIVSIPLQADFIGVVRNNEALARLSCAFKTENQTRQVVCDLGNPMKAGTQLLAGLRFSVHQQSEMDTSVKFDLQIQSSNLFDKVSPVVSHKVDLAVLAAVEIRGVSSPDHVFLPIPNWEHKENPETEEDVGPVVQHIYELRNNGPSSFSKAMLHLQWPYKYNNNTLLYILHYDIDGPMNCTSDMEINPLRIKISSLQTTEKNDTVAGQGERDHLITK
T1 sequence (P06756 891-1048 partner limits assumed): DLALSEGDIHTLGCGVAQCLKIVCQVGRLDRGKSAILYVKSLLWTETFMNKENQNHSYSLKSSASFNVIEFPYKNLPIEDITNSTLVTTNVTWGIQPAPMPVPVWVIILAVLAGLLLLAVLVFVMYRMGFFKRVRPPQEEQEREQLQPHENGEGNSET
T1 sequence (P05106 27-788): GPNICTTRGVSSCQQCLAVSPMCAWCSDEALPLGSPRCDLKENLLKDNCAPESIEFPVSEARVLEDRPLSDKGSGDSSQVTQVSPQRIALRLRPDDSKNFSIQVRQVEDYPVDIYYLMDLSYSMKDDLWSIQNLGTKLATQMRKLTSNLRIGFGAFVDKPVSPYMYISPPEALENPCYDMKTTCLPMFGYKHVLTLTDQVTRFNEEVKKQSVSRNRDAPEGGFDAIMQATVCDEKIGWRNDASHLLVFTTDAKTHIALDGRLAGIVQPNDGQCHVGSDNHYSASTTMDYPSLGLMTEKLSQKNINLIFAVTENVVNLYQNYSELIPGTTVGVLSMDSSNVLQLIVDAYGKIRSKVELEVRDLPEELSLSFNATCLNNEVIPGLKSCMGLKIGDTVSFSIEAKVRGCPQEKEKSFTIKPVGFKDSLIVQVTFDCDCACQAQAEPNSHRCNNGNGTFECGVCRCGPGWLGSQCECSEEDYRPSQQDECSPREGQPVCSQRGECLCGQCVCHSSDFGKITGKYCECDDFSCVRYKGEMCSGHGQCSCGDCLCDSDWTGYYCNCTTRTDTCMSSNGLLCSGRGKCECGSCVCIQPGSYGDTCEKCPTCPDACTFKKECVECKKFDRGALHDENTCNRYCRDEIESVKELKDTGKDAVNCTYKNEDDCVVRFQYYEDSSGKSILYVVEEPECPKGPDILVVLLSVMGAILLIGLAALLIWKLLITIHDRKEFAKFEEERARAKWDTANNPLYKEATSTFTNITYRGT
Procedure: (§2) The integrin antibodies and their combinations (no antibody, anti VLA-6 only, anti-integrin αvβ3 only and anti VLA-6+ anti-integrin αvβ3,) were aliquot into predesigned ratio (final ratios in the mixture: 1:20 for anti VLA-6, 1:100 for anti-integrin αvβ3) with PBS, respectively. The HUVECs were incubated with these antibodies for 15 min, sedimented by low speed centrifugation, suspended in 100 μl of serum-free MEM plus 0.02% BSA and then added into the 1% alginate gel coated wells. The wells were transferred into incubator for 6 hours. After that, unattached cells were rinsed from the wells and the attached cells were then fixed and stained with DAPI for cell number counting and phalloidin for F-actin.

VLA-6 integrin = molecular target: T2, VLA-6 integrin (Homo sapiens, UniProt P05556+P23229); assay: Integrin antibody blocking of HUVEC adhesion on alginate surface, anti VLA-6; type: cell-based; conditions: 2D peptide-functionalized alginate, anti VLA-6 1:20, 6 hours
T2 construct: endogenous in cells; host or cells: HUVEC
T2 sequence (P23229 24-938 limits assumed): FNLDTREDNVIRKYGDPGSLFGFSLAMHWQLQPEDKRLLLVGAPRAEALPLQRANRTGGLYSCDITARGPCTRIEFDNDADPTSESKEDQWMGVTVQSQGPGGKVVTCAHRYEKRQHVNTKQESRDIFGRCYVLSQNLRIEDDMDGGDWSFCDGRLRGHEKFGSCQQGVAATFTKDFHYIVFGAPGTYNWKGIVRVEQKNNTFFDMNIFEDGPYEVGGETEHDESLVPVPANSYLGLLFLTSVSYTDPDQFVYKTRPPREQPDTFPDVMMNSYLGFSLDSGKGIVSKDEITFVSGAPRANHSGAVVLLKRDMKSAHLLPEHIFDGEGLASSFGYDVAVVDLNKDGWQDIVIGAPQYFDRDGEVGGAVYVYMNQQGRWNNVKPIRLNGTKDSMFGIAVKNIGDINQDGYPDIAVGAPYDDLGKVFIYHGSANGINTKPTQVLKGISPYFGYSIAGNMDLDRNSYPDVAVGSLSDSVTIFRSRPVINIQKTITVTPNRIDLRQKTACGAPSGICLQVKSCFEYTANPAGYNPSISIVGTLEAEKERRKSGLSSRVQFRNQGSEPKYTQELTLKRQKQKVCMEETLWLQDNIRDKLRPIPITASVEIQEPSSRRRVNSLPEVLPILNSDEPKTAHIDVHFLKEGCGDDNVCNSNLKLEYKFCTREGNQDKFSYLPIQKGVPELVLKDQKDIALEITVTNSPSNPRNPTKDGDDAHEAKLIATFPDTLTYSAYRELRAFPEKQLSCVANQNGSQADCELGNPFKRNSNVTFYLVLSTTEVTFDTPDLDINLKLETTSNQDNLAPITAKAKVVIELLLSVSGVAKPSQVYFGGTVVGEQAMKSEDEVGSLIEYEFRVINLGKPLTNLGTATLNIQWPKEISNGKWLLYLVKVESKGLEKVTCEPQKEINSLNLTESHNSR
T2 sequence (P23229 942-1130 partner limits assumed): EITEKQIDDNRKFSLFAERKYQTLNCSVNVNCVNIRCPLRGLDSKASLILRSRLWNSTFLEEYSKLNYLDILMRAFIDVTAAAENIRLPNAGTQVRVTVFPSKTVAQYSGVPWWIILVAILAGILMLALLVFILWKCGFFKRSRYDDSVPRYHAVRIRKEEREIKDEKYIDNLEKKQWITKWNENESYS
T2 sequence (P05556 21-798): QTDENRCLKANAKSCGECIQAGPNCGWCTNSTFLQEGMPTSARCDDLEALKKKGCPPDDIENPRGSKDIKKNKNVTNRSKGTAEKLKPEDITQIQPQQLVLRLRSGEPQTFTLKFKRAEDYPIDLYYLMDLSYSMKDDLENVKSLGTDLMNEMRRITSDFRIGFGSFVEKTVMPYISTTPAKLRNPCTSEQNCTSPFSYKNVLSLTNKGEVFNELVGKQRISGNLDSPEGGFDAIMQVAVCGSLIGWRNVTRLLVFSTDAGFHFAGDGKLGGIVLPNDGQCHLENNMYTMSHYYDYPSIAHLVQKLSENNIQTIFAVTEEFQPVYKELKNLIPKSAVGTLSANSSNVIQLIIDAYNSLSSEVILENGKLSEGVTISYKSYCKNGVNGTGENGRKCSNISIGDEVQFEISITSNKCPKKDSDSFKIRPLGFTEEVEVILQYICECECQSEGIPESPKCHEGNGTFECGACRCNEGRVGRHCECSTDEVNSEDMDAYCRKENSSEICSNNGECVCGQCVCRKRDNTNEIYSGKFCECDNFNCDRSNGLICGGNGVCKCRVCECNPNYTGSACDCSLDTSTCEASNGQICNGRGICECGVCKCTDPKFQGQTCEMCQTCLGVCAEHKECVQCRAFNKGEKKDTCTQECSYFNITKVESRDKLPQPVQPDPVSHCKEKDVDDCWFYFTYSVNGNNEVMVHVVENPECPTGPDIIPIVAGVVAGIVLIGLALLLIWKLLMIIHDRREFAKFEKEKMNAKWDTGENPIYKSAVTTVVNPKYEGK
Procedure: as §2

HUVECs [3] = assay: HUVEC culture in 3D peptide-functionalized alginate hydrogels (spreading, proliferation, network formation); type: cell-based, human; conditions: 1% alginate, 10% (w/w) peptide, 6 million HUVECs/ml, 2 days culture
Procedure: The Ca2+ containing substrates for alginate crosslinking was prepared as the previous literature mentioned. Alginate modified with these peptides (RGDS (SEQ ID NO:35), RGDSP (SEQ ID NO:33) and α1-peptide, respectively) was dissolved into HUVECs culturing media to prepare 1% alginate solution. […] mixture of the alginate and HUVECs was transferred into each well in 96 well plates (3 replicates for each peptide). The alginate was left gelling for 40 min. Then the well plates were transferred into incubator for 10 min to melt the Ca2+ containing substrates. After Ca2+ containing substrates get removed, HUVEC culturing media was added into each well and continue culture for additional two days. Media were changed every day. The cells were then fixed and stained with DAPI for cell number counting and phalloidin for F-actin to estimate cell spreading at day 0 and day 2. The fluorescent pictures were taken by a Leica TCS SP5 AOBS confocal microscope system. The total tubule length and the proliferation rates were measured.

VLA-6 and αvβ3 integrin = assay: Integrin antibody blocking of HUVEC adhesion on alginate surface, anti VLA-6 + anti-integrin αvβ3; type: cell-based, human; conditions: for decrease in HUVEC adhesion when both VLA-6 and αvβ3 integrin are blocked: 2D peptide-functionalized alginate, both antibodies, 6 hours; for integrin binding concluded from blocking experiments: HUVECs on peptide-functionalized alginates
Procedure: as §2

hiPSC-CMs [4] = assay: Sarcomere formation / alpha sarcomeric actinin expression of hiPSC-CMs on hydrogel microarray; type: cell-based, human; conditions: 15 mM peptide, 3 days culture
Procedure: as §1
Briefly, hiPSC-CMs on the microarray were fixed with 4% PFA solution and blocked by 10% goat serum. […] Z-stacked Images collected from the microarray were analyzed by using the ImageJ (National Institutes of Health) for semi-quantitative analysis of the expression level of alpha sarcomeric actinin of hiPSC-CMs on the microarrays. The sarcomeric actinin expression level of hiPSC-CMs on each hydrogel spot was determined by the total fluorescence intensities of sarcomeric actinin staining divided by the total cell number on the hydrogel spot, which was then normalized to the blank PEG-700 hydrogel spots. […]

HUVECs [5] = assay: HUVEC adhesion on 2D surface of peptide-modified alginate hydrogel; type: cell-based, human; conditions: 10% (w/w) peptide, 1% alginate, versus RGDS
Procedure: The peptides were conjugated onto the oxidized alginate by the EDC-NHS chemistry as reported by Rowley: using aqueous carbodiimide reacted with peptides (RGDS (SEQ ID NO:35), RGDSP (SEQ ID NO:33) and α1-peptide) onto the oxidized alginate. In order to secure sufficient cell attachment, 10% (w/w) peptide modification was performed into the alginate hydrogel.
The Ca2+ containing substrates for alginate crosslinking was prepared according to the literature. 50 μl, 1% alginate modified with peptides (RGDS (SEQ ID NO:35), RGDSP (SEQ ID NO:33) and α1-peptide, respectively) aqueous solution was transferred into each well in 96 well plates (3 replicates for each peptide). The alginate was left gelling for 40 min. Then the well plates were transferred into incubator for 10 min to melt the Ca2+ containing substrates. After Ca2+ containing substrates get removed, HUVECs were seeded onto the hydrogel layers and cultured for 12 hours. Then they were fixed and stained with DAPI for cell number counting and phalloidin for F-actin to estimate cell spreading.

KDR (VEGFR2) = assay: RT-PCR of VEGFR2 mRNA in HUVECs in 3D peptide-modified alginate gel; type: cell-based, human; conditions: HUVECs in 3D peptide-functionalized alginate hydrogels, 6 hours culture
Procedure: Before PCR experiments, HUVECs were seeded in three different peptides (RGDS (SEQ ID NO:35), RGDSP (SEQ ID NO:33) and α1-peptide, respectively) modified 1% alginate gel. The cells were cultured for 6 hrs and then harvest for RNA isolation. Total RNA was isolated according to the kit and protocol of an RNeasy Micro Kit (Qiagen, Vinlo, Netherlands) with the addition of the QIAShredder (Qiagen) during the homogenization step for HUVECs. For each group, around 0.1 million cells were used for RNA isolation. At least 25 ng of total RNA for each group was used for cDNA synthesis by the Bio-Rad (Hercules, USA) iScript cDNA synthesis kit. qRT-PCR was executed with “best coverage” validated Taqman primers (Life Technologies, Carlsbad, USA) in 10 μl reactions for the following genes: KDR (VEGFR2), ACTB, GAPDH. qRT-PCR Data was normalized as the change in cycle threshold (dCt) from the geometric mean of ACTB and GAPDH expression. Expression was analyzed using mRNA expression=2^(−(dCt)) and then normalized to the gene expression from RGDS (SEQ ID NO:35) samples.

HUVECs (EC integrin) = assay: HUVEC adhesion on RGD peptide-functionalized PEG hydrogel microarray; type: cell-based, human; conditions: for affinity to HUVECs / HUVEC adhesion on PEG hydrogel microarray: 12 hours culture
Procedure: Methacrylated peptides (shown in FIG. 7) were dissolved in DMF at pre-designated ratios (1 mM, 3 mM, 6 mM, 9 mM, 12 mM, 15 mM and 20 mM) and mixed with PEGDA (containing 1% DMPA as initiator) (DMF solution of methacrylated peptide: PEGDA=1:1 (v/v)) and then transferred into a 384 well plate for microarray fabrication. The microarrays were printed in a humid Ar-atmosphere on epoxy monolayer-coated glass slides (Xenopore XENOSLIDE E, Hawthorne, N.J.) which were first dip-coated in 4 v/v % poly(hydroxyethyl methacrylate) (i.e., poly(HEMA)) using a customized microarrayer (Biodot). Spots were polymerized via 10 s exposure to long wave UV (365 nm), dried at <50 mtorr for at least 7 days. Before use, the chips were sterilized by UV for 30 min for each side, and then washed with PBS twice for 15 min to remove residual monomer or solvent. HUVECs (human umbilical vein endothelial cells from Lonza, Basel, Switzerland) were seeded onto the array and cultured for 12 hours. They were then fixed and stained with DAPI for cell number counting and phalloidin for F-actin to estimate cell spreading for the lead peptide identification.

hADSCs = assay: hADSC adhesion on peptide-functionalized PEGDA-700 hydrogel microarray (peptide function validation, glycine linker length); type: cell-based, human; conditions: for saturation number of attached hADSCs relative to MethRGDSP and MethG2RGDSP: saturated (maximum) number of attached cells, peptide 0.5-15 mM, 12 hours; for adhesion of hADSCs on peptide-functionalized PEGDA-700 hydrogels: 15 mM peptide
Procedure: PEGDA and methacrylated peptides were mixed at varied peptide concentrations (i.e., 0.5, 1, 3, 6, 9, 12 and 15 mM) to prepare microarrayed hydrogels with different peptide concentrations. hADSCs were seeded onto the array and cultured for 12 hours.
All experiments were conducted using passage 5 (P5) hADSCs.

Substance: SETQRGDVFVP [RGD peptide of the 12-peptide library, reference compound]
- hiPSC-CM adhesion / affinity to hiPSC-CMs (hiPSC-CMs [1]): moderate cell adhesion

Substance: CQAGTFALRGDNPQG [A99, similar Ln derived peptide]
- integrin binding reported for A99 [2]: bind to both VLA-6 (α6) and αvβ3 integrin subunits

Substance: RGDS [RGD peptide derived from Fn]
- decrease in HUVEC adhesion when αvβ3 integrin is blocked (αvβ3 integrin): ~35%
- decrease in HUVEC adhesion when VLA-6 integrin is blocked (VLA-6 integrin): does not significantly affect cell adhesion
- HUVEC spreading, proliferation and network formation in 3D alginate hydrogel (HUVECs [3]): limited cell spreading and no visible network formation
- decrease in HUVEC adhesion when both VLA-6 and αvβ3 integrin are blocked (VLA-6 and αvβ3 integrin): ~35%
- integrin binding concluded from blocking experiments (VLA-6 and αvβ3 integrin): bind to αvβ3 integrin

Substance: PMQKMRGDVFSP [derived from Laminin subunit β4]
- sarcomere formation / sarcomeric actinin expression of hiPSC-CMs (hiPSC-CMs [4]): greatest ability to promote hiPSC-CM adhesion and sarcomere formation; also recorded: most developed sarcomere structures
- sarcomere formation / sarcomeric actinin expression of hiPSC-CMs (hiPSC-CMs [4]; listed as RGD (SEQ ID NO:36) peptide from laminin β4 subunit): highest sarcomeric actinin expression
- hiPSC-CM adhesion / affinity to hiPSC-CMs (hiPSC-CMs [1]): greatest ability to promote hiPSC-CM adhesion; also recorded: substantial activities to support hiPSC-CM adhesion; also recorded: highest affinity to hiPSC-CMs

Substance: DAVKQLQAAERGDA [derived from Laminin subunit α4]
- hiPSC-CM adhesion / affinity to hiPSC-CMs (hiPSC-CMs [1]): substantial activities to support hiPSC-CM adhesion

Substance: TFALRGDNP [α1 peptide, RGD peptide derived from Ln α1 subunit]
- number of HUVECs attached to 2D surface of alginate hydrogel, higher than RGDS (HUVECs [5]): ~150%
- mRNA expression of VEGFR2 (KDR (VEGFR2)): significantly up-regulated
- HUVEC spreading, proliferation and network formation in 3D alginate hydrogel (HUVECs [3]): significantly enhanced cell proliferation and network formation
- affinity to HUVECs / HUVEC adhesion on PEG hydrogel microarray (HUVECs (EC integrin)): highest activities to promote HUVEC adhesion
- saturated number of attached HUVECs, higher than RGDS (HUVECs (EC integrin); PEG hydrogel microarray, versus RGDS): ~500%
- saturated number of attached HUVECs, higher than RGDSP (HUVECs (EC integrin); PEG hydrogel microarray, versus RGDSP): ~200%
- decrease in HUVEC adhesion when both VLA-6 and αvβ3 integrin are blocked (VLA-6 and αvβ3 integrin): ~70%
- integrin binding concluded from blocking experiments (VLA-6 and αvβ3 integrin): binds to both VLA-6 and αvβ3 integrin

Substance: PQVTRGDVFTMP [RGD peptide from vitronectin, included as a control, reference compound]
- hiPSC-CM adhesion / affinity to hiPSC-CMs (hiPSC-CMs [1]): moderate cell adhesion

Substance: MethG6RGDSP: methacrylated-RGDSP-peptide with 6 glycine linker (Meth-GGGGGGRGDSP)
- saturation number of attached hADSCs relative to MethRGDSP and MethG2RGDSP (hADSCs): about one-fold higher

Substance: MethG4RGDSP: methacrylated-RGDSP-peptide with 4 glycine linker (Meth-GGGGRGDSP)
- adhesion of hADSCs on peptide-functionalized PEGDA-700 hydrogels (hADSCs): effectively promote adhesion of hADSCs
- saturation number of attached hADSCs relative to MethRGDSP and MethG2RGDSP (hADSCs): about one-fold higher

Substance: G4RDGSP: methacrylated scrambled sequence of G4RGDSP (Meth-GGGGRDGSP) [reference compound]
- adhesion of hADSCs on peptide-functionalized PEGDA-700 hydrogels (hADSCs): no cell adhesion

Substance: RGDSP [RGD peptide derived from Fn]
- mRNA expression of VEGFR2 (KDR (VEGFR2)): significant higher amount of VEGFR2 mRNA expression
- decrease in HUVEC adhesion when VLA-6 integrin is blocked (VLA-6 integrin): does not significantly affect cell adhesion
- HUVEC spreading, proliferation and network formation in 3D alginate hydrogel (HUVECs [3]): limited cell spreading and no visible network formation
- affinity to HUVECs / HUVEC adhesion on PEG hydrogel microarray (HUVECs (EC integrin)): significantly higher affinity to HUVECs than RGDS
- integrin binding concluded from blocking experiments (VLA-6 and αvβ3 integrin): bind to αvβ3 integrin
